The values below are quoted from earlier work in patent US20100317631A1, “Gel Composition and Transcrotal Application of a Composition for the Treatment of Hypogonadism” (Dr. August Wolff GmbH & Co. Arzneimittel, priority 2000, published 2010).

[1] abbreviates: intra muscular, standard dosage 250 mg.

As to `CCCCCCC(=O)O[C@H]1CC[C@H]2[C@@H]3CCC4=CC(=O)CC[C@]4(C)[C@H]3CC[C@]12C` [testosterone enanthat], the terminal half-time value (intra muscular administration) is 4.5 days. For the same compound, under setting [1], the “testosterone concentrations in serum achieved” value is on record as “up to 50 nmol/l” and the “time at which serum testosterone passes the lower limit of normal range” value is above 12 days.
